Experimental data published in the pKa sets of Baltruschat and Czodrowski (2020).

Conditions: acidic group
For CCc1c(-c2ccccc2)nn(-c2ccccc2)c1O, the pKa was 8. O=C(O)c1cccc2cc3ccccc3cc12 showed a pKa of 3.7. For [O-][N+]([O-])=C(CO)CO, the pKa was 13.5. In the case of CCOP(=O)(O)NS(=O)(=O)c1ccccc1, the pKa is reported as 1.8. Work on O=C(O)C(c1ccc(-c2ccccc2)cc1)C(O)Cc1ccccc1 (configuration not stated) yielded a pKa of 4.29. Work on COc1ccc(NC=S)cc1 yielded a pKa of 11.7. Work on C[N+](C)(C)NC(=O)c1cccc([N+](=O)[O-])c1 yielded a pKa of 3.16. With O/N=C(/Cc1ccccc1)NO the pKa was 10.7. In the case of COc1ccc([C@H]2C[C@@H]2C(=O)O)cc1, the pKa is reported as 4.62. CCOC(=O)CC(C)=O showed a pKa of 10.7. O=C(O)[C@@H]1CCCC[C@@H]1O gave a pKa of 4.8. Work on CCCCC([NH3+])C(=O)O (configuration not stated) yielded a pKa of 2.29. With Cc1cc(C)c(C(C(=O)O)c2ccccc2)c(C)c1 (configuration not stated) the pKa was 4. In the case of Nc1cc[nH+]c2c1ncn2CCOCP(=O)(O)O, the pKa is reported as 1.11. For CCc1c(O)nn(-c2ccccc2)c1C, the pKa was 12.3. In the case of Nc1nc2ncncc2[nH]1, the pKa is reported as 9.36. O=C([O-])c1cc([N+](=O)[O-])ccc1O showed a pKa of 10.1. In the case of O=c1c2[nH]cnc2ncn1[O-], the pKa is reported as 10.1. Nc1cc(N)c2cccnc2c1O showed a pKa of 10.8. With Fc1cc(F)c(F)c(S)c1F the pKa was 2.75. c1ccc2c(c1)[nH]c1c2cc[n+]2cc3c(cc12)CCCC3 showed a pKa of 10.6. Work on Cc1ccccc1C[N+](=O)[O-] yielded a pKa of 7.6. Cc1ccc(C(=O)O)cc1 showed a pKa of 4.37. For CC(C)CN(CC(C)C)C(=S)S, the pKa was 3.4. CC(C)(C)C1CCn2nnnc2C(C(=O)O)C1 (configuration not stated) showed a pKa of 4.4. N#CC(C#N)=C(C#N)Nc1ccc(C(=O)O)cc1 gave a pKa of 4.2. In the case of O/N=C/c1ccnc2ccccc12, the pKa is reported as 10.4. For COc1ccc(O)c(CNC(CO)C(=O)[O-])c1 (configuration not stated), the pKa was 10.4. O=C(O)/C=C/SC1CCCCC1 gave a pKa of 4.7. With CCOc1ccc(C(=O)NC(=S)N(CC)CC)cc1 the pKa was 8.83. O=C(O)CCc1nnnn1-c1ccccc1 showed a pKa of 5. Oc1ccccc1C1=[NH+]CCN1 gave a pKa of 6.63. Work on CC(=O)CC(=O)O yielded a pKa of 3.09. Compound O=C(O)CCCC(=O)NOCc1ccccc1 has a pKa of 4.7. For O=C([O-])c1cccc(O)c1, the pKa was 9.81. For O=C([O-])[C@@H](NCC[NH2+][C@@H](C(=O)[O-])c1ccccc1[O-])c1ccccc1O, the pKa was 10.8. Compound O=C(NO)c1ccccn1 has a pKa of 8.6. Work on CC(O)[C@@H]1C[C@H](CC(=O)O)C1(C)C (some centres not stated) yielded a pKa of 4.83. COc1ccc(CC(C(C)=O)C(C)=O)cc1 showed a pKa of 10.6. In the case of O=C1CCCCC1=O, the pKa is reported as 10.3. For O=C(O)c1ccsc1, the pKa was 4.03. Work on C[Si](C)(CC(=O)O)c1ccccc1 yielded a pKa of 5.27. With CC(C)(O)C(C(=O)O)c1ccc(C2CCCCC2)cc1 (configuration not stated) the pKa was 3.76. In the case of [NH3+]CC#CC#CCCC(=O)O, the pKa is reported as 4.05. In the case of Oc1cc(-c2ccccc2)n(-c2ccccc2)n1, the pKa is reported as 12.9. In the case of O=[N+]([O-])c1ccc(-c2ccc(O)cc2)cc1, the pKa is reported as 9.01. For NCCc1ccc(O)c(O)c1, the pKa was 10.6. Work on CCC(CC)C1(CC)C(=O)NC(=S)NC1=O yielded a pKa of 7.46. For c1nnn[nH]1, the pKa was 4.84. For C[NH+](C)Cc1ccc(O)cc1, the pKa was 8.83. With O=C1NC(=O)C2CCC12 (configuration not stated) the pKa was 9.63. CCCCCc1c(-c2ccccc2)n[nH]c1O showed a pKa of 8.4. Compound O=C([O-])C1(C(=O)O)CCCC1 has a pKa of 6.08. For Nc1ccc(S(=O)(=O)Nc2ccn(-c3ccccc3[N+](=O)[O-])n2)cc1, the pKa was 7. CC(C)(C)C1C(=O)NC(=O)NC1=O showed a pKa of 7.98. In the case of O=C(NO)C1CCCCC1, the pKa is reported as 9.87. Work on O=[N+]([O-])c1ccc(S(=O)O)cc1 yielded a pKa of 1.86. Compound O=S(=O)([O-])c1cc(O)cc2cn[nH]c12 has a pKa of 9.65. Cc1ccc(C(=O)c2ccccc2C(=O)O)cc1 showed a pKa of 3.64. NC(=O)Nc1[nH]cnc1C(=O)[O-] gave a pKa of 12.2. For Clc1ncnc2nc[nH]c12, the pKa was 7.75. Compound OCC[n+]1cc(Br)c2ccccc2c1 has a pKa of 13.1. Compound NS(=O)(=O)c1ccc(/N=C/c2ccccc2[O-])cc1 has a pKa of 11.7. With Cc1ccc2[nH]nnc2c1 the pKa was 8.9. CC1(C)CC(=O)CC(=O)C1 showed a pKa of 5.21. For Cc1ccc(C)c(C(=O)O)c1, the pKa was 3.97. Work on CC(C)(C)CCC(=O)O yielded a pKa of 4.83. Compound S=c1[nH]c2ccccc2[nH]1 has a pKa of 10.2. CCn1nnnc1NC(C)=O showed a pKa of 8.38. Work on Cc1ccc2cccc(O)c2n1 yielded a pKa of 10.1. For C/C(=N\O)C(=O)CO, the pKa was 9.16. Compound O=C(O)c1csc2ccccc12 has a pKa of 4.24.

Same assay, conditions: basic group
With CCCCNCCC(=O)[O-] the pKa was 10.6. In the case of Nc1nc(N)nc(Nc2ccccc2)n1, the pKa is reported as 4.65. Compound CCCC(=O)OC(C)CN(C)C (configuration not stated) has a pKa of 8.27. With CC[NH+](CC)CCOCCN(C)C the pKa was 8.4. With Nc1ccnc(-c2cc(N)ccn2)c1 the pKa was 8.8. In the case of CC(C)S(=O)(=O)n1c(N)nc2ccc(/C(=C/C(N)=O)c3cc(F)ccc3F)cc21, the pKa is reported as 3.4. For CCc1cc(CC)c(OC)c(C(=O)NC[C@H]2CCCN2CC)c1[O-], the pKa was 9.54. c1ccc2[nH+]c(-c3ccncc3)[nH]c2c1 gave a pKa of 4.47. CN1CC=CC1 gave a pKa of 9.92. With CC(=O)Nc1ccc(S(=O)(=O)Nc2ccccn2)cc1 the pKa was 2.03. For Nc1cccc(-c2nc3ccccc3s2)c1, the pKa was 3.4. O/N=C(/Cc1ccccc1)NO showed a pKa of 4.25. In the case of C1CNCCSCCN1, the pKa is reported as 10. Work on Nc1cc[nH+]c2c1ncn2CCOCP(=O)(O)O yielded a pKa of 0.05. Nc1nc2ncncc2[nH]1 gave a pKa of 4.68. c1ccc(NC2=NCCCO2)cc1 showed a pKa of 9.33. With C[Si](C)(C)CNc1ccccc1 the pKa was 5.3. Work on C1CCN(N2CCCC2)C1 yielded a pKa of 7.16. Compound Nc1cc(N)c2cccnc2c1O has a pKa of 6.96. Work on O=[N+]([O-])c1ccc2[nH]c(-c3ccco3)nc2c1 yielded a pKa of 2.64. CCCCc1nc(N)c2ncsc2n1 showed a pKa of 3.49. With CCC[NH2+]CCN the pKa was 7.54. CCNc1ncnc2c1cnn2C showed a pKa of 4.24. Compound C1CCC2CNCCC2C1 (configuration not stated) has a pKa of 10.9. With NC(C[NH3+])C[NH3+] the pKa was 3.72. Compound O=[N+]([O-])c1cc(CN2CCCCC2)c([O-])c2ccccc12 has a pKa of 10.7. For CSc1ccc(N)c([N+](=O)[O-])c1, the pKa was -0.28. Compound CCN(CC)c1ccc(C(O)(c2ccccc2)c2ccc(N(CC)CC)cc2)cc1 has a pKa of 7.9. For O/N=C/c1ccnc2ccccc12, the pKa was 4.55. O=P([O-])([O-])C(NCc1ccncc1)c1ccccc1[O-] (configuration not stated) gave a pKa of 12.2. Compound COc1ccc(O)c(CNC(CO)C(=O)[O-])c1 (configuration not stated) has a pKa of 8.3. CC1CCN1 (configuration not stated) gave a pKa of 11. For Cc1cc(-c2ccccc2)nnc1NCCN1CCOCC1, the pKa was 7.05. In the case of Oc1cccc2[nH]ncc12, the pKa is reported as 8.65. With CC(C)(C)N the pKa was 10.7. With O=C(/C=C/c1c[nH]cn1)OCCCl the pKa was 4.8. c1cnc2ccc3ncccc3c2c1 showed a pKa of 4. For COc1ccc(/N=N/c2ccncc2)cc1, the pKa was 4.53. Work on Cc1ccnc(N)c1 yielded a pKa of 7.48. With NC(=O)CCCc1cccnc1 the pKa was 5.33. Work on C[NH+](C)CCC/N=C(\c1ccccc1)c1ccccc1Cl yielded a pKa of 3.46. In the case of C[C@@H]1CCN2CC[C@H](O)[C@H]12, the pKa is reported as 10.9. CN(CCC[NH+](C)C)CCC[NH+](C)C gave a pKa of 6.4. In the case of [NH3+]c1ccc(-c2cnc(-c3ccccc3)o2)cc1, the pKa is reported as 0.5. In the case of Cc1nc2ccccc2c(NCCC[NH+](C)C)c1[N+](=O)[O-], the pKa is reported as 5.35. For c1ccc(-c2cccc(-c3cccc[nH+]3)n2)nc1, the pKa was 3.28. In the case of c1ccc(Nc2nccs2)cc1, the pKa is reported as 4.33. In the case of C(=C\CN1CCCCC1)/CN1CCCCC1, the pKa is reported as 9.7. In the case of CC1/C(=N/O)C[C@@H]2N=C(c3ccccc3)O[C@@]13[C@@H]1OC(=O)[C@H](C)[C@H]1CC[C@]23C (some centres not stated), the pKa is reported as 4.7. COc1ccc(OC)c2c1nc(C)n2C gave a pKa of 6.12. O=C([O-])[C@@H]1O[C@H](Oc2cccc3cccnc23)[C@@H](O)[C@H](O)[C@H]1O showed a pKa of 4.62. For Cc1cc([O-])nc2c1CCO2, the pKa was 8.44. Work on c1ccc(-c2cc(-c3ccccc3)c(NCCN3CCOCC3)nn2)cc1 yielded a pKa of 6.81. With CCN(CC)c1ccc([N+](=O)[O-])cc1 the pKa was 1.7. Compound Nc1ccccc1C(=O)[O-] has a pKa of 4.87. Work on OCCCCc1ccccn1 yielded a pKa of 5.83. Compound Cc1ccc(/N=N/c2ccc(N)cc2)cc1 has a pKa of 3.04. For C[C@H](N)CCC(=O)[O-], the pKa was 10.4. NCCc1ccc(O)c(O)c1 showed a pKa of 8.89. CCCCN(CC[S-])CCCC showed a pKa of 11.6. With CC[NH2+]CCN the pKa was 7.52. Cc1cc(N)nc(C)n1 showed a pKa of 6.85. In the case of CCc1cccc(/N=N/c2ccc(N(C)C)cc2)c1, the pKa is reported as 2.16. Compound O=[N+]([O-])c1ccc2[nH]c(C(F)(F)F)nc2c1 has a pKa of 0.18. For CC(C)[NH+]1CCC(NN)CC1, the pKa was 5.75. N#CC1C(=O)Cc2ccccc21 (configuration not stated) gave a pKa of 4.8. Work on [NH3+]Nc1nncc2ccccc12 yielded a pKa of 2.9. For O=C([O-])CC(c1ncc[nH]1)c1[nH]cc[nH+]1, the pKa was 4.62. With Nc1cccc2ncncc12 the pKa was 3.57. Compound C[NH+](C)CC(C)(C)CN has a pKa of 7.4. CCCNC(=O)[C@H](Cc1c[nH]cn1)NC(=O)c1cccc(CNCC[NH3+])n1 showed a pKa of 6.5. With c1coc(CNCCNCc2ccco2)c1 the pKa was 8.61. Compound CC1([NH3+])C[C@]1(C)N (some centres not stated) has a pKa of 5.94. Work on Cc1cc(C)ncn1 yielded a pKa of 2.7. Work on O=[N+]([O-])c1cccc2[nH]ncc12 yielded a pKa of 0.42. Compound O=C([O-])[C@]12CNCC[C@H]1O2 has a pKa of 9.14. CC(C)S(=O)(=O)n1c(N)nc2ccc(/C(=C/C(N)=O)c3cccc(F)c3)cc21 gave a pKa of 3.41. Compound COC(=O)C(N)CCONC(N)=O (configuration not stated) has a pKa of 6.95. Cn1cc[nH+]c1N=[N+]=[N-] gave a pKa of 0.5. CN1CC=CCN1C gave a pKa of 5.7. Work on Cc1ccccc1/C(N)=N/O yielded a pKa of 4.03. CCNC(=O)c1ccccn1 gave a pKa of 2.4. O=C1CCc2ccccc2C1 showed a pKa of 12.8. For CN(c1ccccc1)C(C)(C)C, the pKa was 7.5. For CN(C)CCCCCCCCCCNC(=O)/C=N/[O-], the pKa was 10.6. CCCCNCCNCCCC showed a pKa of 10.2. NC(=S)NCc1ccccc1 showed a pKa of 0.86. Compound NC(=O)Nc1[nH]cnc1C(=O)[O-] has a pKa of 4.9. For CN1[C@@H](CC(=O)c2ccccc2)CCC[C@H]1C[C@@H](O)c1ccccc1, the pKa was 8. CN1CCCCCN1C gave a pKa of 6.66. For CC(=O)c1ccccn1, the pKa was -0.46. For CC1CCNC(C)(C)C1 (configuration not stated), the pKa was 11.1. For CCCN(CCC)c1ccc([N+](=O)[O-])cc1, the pKa was 1.06. Compound Nc1ccc2ncncc2c1 has a pKa of 3.29. Work on Nc1ccc(C(=O)c2ccc([NH3+])cc2)cc1 yielded a pKa of 1.37. CCCN(N)CCC showed a pKa of 7. Cc1ccc2cccc(O)c2n1 gave a pKa of 5.63. In the case of CC[NH+](CC)CCNc1cc(C)nc(Nc2ccc(Cl)cc2)n1, the pKa is reported as 6.65. With CCNCC(=O)[O-] the pKa was 10.2. With O=C(Nc1ccncc1)c1ccccc1 the pKa was 5.32.
